One assay deals with T1, SHP2^WT (1–593) (Homo sapiens, UniProt Q06124).
T1 construct: made in house; host or cells: E. coli BL21 Star (DE3), pET30 vector
T1 sequence (Q06124 1-593): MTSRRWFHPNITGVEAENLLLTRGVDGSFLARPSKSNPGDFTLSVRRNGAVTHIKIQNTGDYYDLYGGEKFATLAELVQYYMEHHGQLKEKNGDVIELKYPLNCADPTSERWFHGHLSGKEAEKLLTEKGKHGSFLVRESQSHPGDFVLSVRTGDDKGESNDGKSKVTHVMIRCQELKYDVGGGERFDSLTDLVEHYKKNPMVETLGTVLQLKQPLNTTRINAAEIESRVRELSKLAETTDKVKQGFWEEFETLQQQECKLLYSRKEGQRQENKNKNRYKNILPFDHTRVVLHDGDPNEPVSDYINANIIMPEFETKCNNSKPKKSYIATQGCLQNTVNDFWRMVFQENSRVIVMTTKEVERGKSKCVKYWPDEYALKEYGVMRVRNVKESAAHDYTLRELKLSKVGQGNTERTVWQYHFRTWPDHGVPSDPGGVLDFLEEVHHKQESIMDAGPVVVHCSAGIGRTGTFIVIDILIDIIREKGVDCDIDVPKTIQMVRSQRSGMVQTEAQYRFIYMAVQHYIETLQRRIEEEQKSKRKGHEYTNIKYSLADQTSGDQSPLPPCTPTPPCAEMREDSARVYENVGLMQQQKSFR
The experiment in a line: SHP-2 prompt fluorescence phosphatase assay (DiFMUP), SHP2^WT. Particulars: for IC50 / pIC50: SHP-2_case sheet; for pIC50: from experimental IC50; for ΔG experiment: experimental binding free energy converted from IC50. In kind it is biochemical. Further details: ΔG experiment: unit not given here. The procedure: Briefly, the constructs were transformed into BL21 Star^TM (DE3) cells and cultured at 37 °C for 3~4 h. Subsequently, the cells with high expression of SHP2 protein were harvested after being induced by IPTG and grown overnight at 18 °C. Cell pellets were resuspended in lysis buffer (25 mM imidazole, 50 mM Tris−HCl, 500 mM NaCl, 2.5 mM MgCl2, 1 mM tris(2-carboxyethyl)phosphine (TCEP), 1 μg/mL DNase1, and complete EDTA-free protease inhibitor) and lysed using Low Temperature Ultrahigh Pressure Continuous Flow Cell Disrupter (JNBIO), followed by ultracentrifugation. The supernatant was collected. Then, the SHP2 was purified from the collected supernatant by using HisTrap HP chelation column, TEV protease, and HiTrap Q FastFlow column.
Then, the mixture was then incubated at 25 °C for 60 min. To initiate the reaction, the surrogate substrate DiFMUP (Invitrogen, cat. no. D6567, Shuzhou, China, 200 μM) was added and incubated at 25 °C for another 30 min. […] Fluorescence signal was detected using a microplate reader (Bio-Tek, Shanghai, China, Synergy2) at Ex/Em = 340/450 nm. Using control-based normalization, normalized IC50 regression curves were fitted to inhibitor dose response curves.

The subject of the next assay is Eg5. Particulars: experimental binding free energy, ref Schrödinger FEP+ benchmark; cited from earlier work.
The mark [1] stands for this setting: designed SHP-2 inhibitors, read-out: IC50uM.
Setting [2] is: same IC50 restated in another unit, read-out: IC50nM.

Like-named read-outs stand apart in the source and are kept apart here.

The values below come from PMC10779950, “Binding Free Energy Calculation Based on the Fragment Molecular Orbital Method and Its Application in Designing Novel SHP-2 Allosteric Inhibitors” (International Journal of Molecular Sciences, 2024).

Regarding `CC1(N)CCN(c2cnc(-c3cccc(Cl)c3Cl)c(N)c2)CC1` [A-S1], the IC50 at SHP2^WT (1–593) (setting [1]) was 1.49 µM. Also, at SHP2^WT (1–593), the pIC50 is given as 5.826 and the ΔG experiment is given as -7.943. For the same compound, the IC50 at SHP2^WT (1–593) (setting [2]) was 1.49 µM.

As for `Nc1cc(NCC2CCCNC2)cnc1-c1cccc(Cl)c1Cl` (stereo not drawn) [A-S2], the IC50 at SHP2^WT (1–593) (setting [1]) was found to be 15.6 µM. At SHP2^WT (1–593), the pIC50 was found to be 4.8066 and the ΔG experiment is on record as -6.554. Further, at SHP2^WT (1–593) (setting [2]), the IC50 is 15.6 µM.

In the case of `Nc1cc(NC2CCNC2)cnc1-c1cccc(Cl)c1Cl` (stereo not drawn) [A-S3], the IC50 at SHP2^WT (1–593) (setting [1]) was determined as 5.17 µM. Moreover, at SHP2^WT (1–593), the pIC50 is reported as 5.286 and the ΔG experiment is reported as -7.208. The IC50 at SHP2^WT (1–593) (setting [2]) amounted to 5.17 µM.

On to `Nc1cc(NC2CCNCC2)cnc1-c1cccc(Cl)c1Cl` [A-S4], for which, at SHP2^WT (1–593) (setting [1]), the IC50 stood at 23.5 µM. Also, on SHP2^WT (1–593), the pIC50 amounted to 4.629 and the ΔG experiment is reported as -6.312. Moreover, the IC50 on SHP2^WT (1–593) (setting [2]) is 23.5 µM.

On to `CC1(N)CCN(c2cnc(-c3cccc(F)c3Cl)c(N)c2)CC1` [A-S5], for which the IC50 on SHP2^WT (1–593) (setting [1]) stood at 15.1 µM. Further, on SHP2^WT (1–593), the pIC50 is listed as 4.821 and the ΔG experiment was -6.573. Besides, on SHP2^WT (1–593) (setting [2]), the IC50 was determined as 15.1 µM.

In the case of `CC1(N)CCN(c2cnc(-c3ccnc(Cl)c3Cl)c(N)c2)CC1` [A-S6], the IC50 on SHP2^WT (1–593) (setting [1]) and at SHP2^WT (1–593) (setting [2]) was 10.7 µM each time. Also, the pIC50 at SHP2^WT (1–593) is listed as 4.973. The ΔG experiment at SHP2^WT (1–593) was -6.78.

In the case of `CC1(N)CCN(c2cnc(Sc3cccc(Cl)c3Cl)c(N)c2)CC1` [A-S7], the IC50 on SHP2^WT (1–593) (setting [1]) and at SHP2^WT (1–593) (setting [2]) was 11.2 µM each time. In addition, the pIC50 at SHP2^WT (1–593) is given as 4.949. For the same compound, the ΔG experiment at SHP2^WT (1–593) is given as -6.748.

On to `Nc1cc(N2CCC3(CCCC3N)CC2)cnc1Sc1cccc(Cl)c1Cl` (stereo not drawn) [A-S8], for which the IC50 at SHP2^WT (1–593) (setting [1]) worked out at 2.29 µM. At SHP2^WT (1–593), the pIC50 is reported as 5.64 and the ΔG experiment is listed as -7.69. In addition, the IC50 at SHP2^WT (1–593) (setting [2]) is 2.29 µM.

`CN(C)CCNC(=O)NC[C@H]1CC[C@@H]2[C@H](O1)c1cc(C(F)(F)F)ccc1N[C@H]2c1ccccc1` [CHEMBL1077204]: in the assay with Eg5, the “Exp. ΔG” value is recorded as -11.05 kcal/mol.

For the compound `CNC[C@H]1CC[C@@H]2[C@H](O1)c1cc(C(C)(C)C)ccc1N[C@H]2c1cccs1` [CHEMBL1077227], the “Exp. ΔG” value in the assay on Eg5 is -11.32 kcal/mol.

With `CC(C)(C)c1ccc2c(c1)[C@H]1OCCC[C@H]1[C@H](c1ccc(O)cc1)N2` [CHEMBL1078691], the “Exp. ΔG” value in the assay with Eg5 was -10.19 kcal/mol.

As for `CC(C)(C)c1ccc2c(c1)[C@H]1OCCC[C@H]1[C@H](c1ccc(O)c(F)c1)N2` [CHEMBL1078774], the “Exp. ΔG” value in the assay on Eg5 was -10.6 kcal/mol.

Turning to `CC(C)(C)c1ccc2c(c1)[C@H]1OCCC[C@H]1[C@H](c1cccs1)N2` [CHEMBL1078998], in the assay on Eg5, the “Exp. ΔG” value is listed as -10.37 kcal/mol.

As for `CNC[C@H]1CC[C@@H]2[C@H](O1)c1cc(Br)cc(F)c1N[C@H]2c1ccccc1` [CHEMBL1082248], the “Exp. ΔG” value with Eg5 is -11.63 kcal/mol.

`CC(=O)NCCNC[C@H]1CC[C@@H]2[C@H](O1)c1cc(Br)cc(F)c1N[C@H]2c1ccccc1` [CHEMBL1082249]: the “Exp. ΔG” value in the assay with Eg5 is -11.22 kcal/mol.

In the case of `CNC[C@H]1CC[C@@H]2[C@H](O1)c1cc(C(F)(F)F)ccc1N[C@H]2c1ccc(O)cc1` [CHEMBL1083517], the “Exp. ΔG” value in the assay on Eg5 is recorded as -11.46 kcal/mol.

As for `CNC[C@H]1CC[C@@H]2[C@H](O1)c1cc(C3CC3)ccc1N[C@H]2c1ccccc1` [CHEMBL1083836], the “Exp. ΔG” value with Eg5 is on record as -10.86 kcal/mol.

Take `CC(C)(C)c1ccc2c(c1)[C@H]1OCCC[C@H]1[C@H](c1ccsc1)N2` [CHEMBL1084115]: the “Exp. ΔG” value in the assay with Eg5 is recorded as -9.44 kcal/mol.

In the case of `CC(C)c1ccc2c(c1)[C@H]1O[C@@H](CNS(=O)(=O)CCCN(C)C)CC[C@H]1[C@H](c1ccccc1)N2` [CHEMBL1084143], the “Exp. ΔG” value in the assay with Eg5 is recorded as -11.87 kcal/mol.

As to `Cc1ccc(C(=O)N(CCN)C[C@H]2CC[C@@H]3[C@H](O2)c2cc(C(F)(F)F)ccc2N[C@H]3c2ccccc2)cc1` [CHEMBL1084431], in the assay with Eg5, the “Exp. ΔG” value was -9.8 kcal/mol.

As for `CN(C)CCOC(=O)NC[C@H]1CC[C@@H]2[C@H](O1)c1cc(C(F)(F)F)ccc1N[C@H]2c1ccccc1` [CHEMBL1084676], the “Exp. ΔG” value with Eg5 is -10.71 kcal/mol.
